Values of other authors, collected in article PMC4358631 (Journal of Medicinal Chemistry, 2014).

Target: α3β4 nAChR (Rattus norvegicus, UniProt P04757+P12392)
Conditions: compounds bind to the central lumen of the receptor

Chain of α3β4 nAChR (P04757 26-499): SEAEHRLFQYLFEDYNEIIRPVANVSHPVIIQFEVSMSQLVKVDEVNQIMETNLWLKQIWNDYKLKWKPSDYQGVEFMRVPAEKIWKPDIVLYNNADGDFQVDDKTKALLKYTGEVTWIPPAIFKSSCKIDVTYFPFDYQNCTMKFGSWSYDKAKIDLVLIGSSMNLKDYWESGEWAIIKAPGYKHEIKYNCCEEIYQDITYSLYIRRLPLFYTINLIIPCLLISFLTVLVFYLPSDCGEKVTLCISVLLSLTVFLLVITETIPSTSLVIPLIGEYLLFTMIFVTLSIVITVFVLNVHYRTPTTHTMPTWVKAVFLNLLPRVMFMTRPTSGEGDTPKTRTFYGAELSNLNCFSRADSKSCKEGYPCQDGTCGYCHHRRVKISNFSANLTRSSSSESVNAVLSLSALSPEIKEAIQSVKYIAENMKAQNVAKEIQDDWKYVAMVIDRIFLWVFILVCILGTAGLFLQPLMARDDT
Chain of α3β4 nAChR (P12392 22-495 limits assumed): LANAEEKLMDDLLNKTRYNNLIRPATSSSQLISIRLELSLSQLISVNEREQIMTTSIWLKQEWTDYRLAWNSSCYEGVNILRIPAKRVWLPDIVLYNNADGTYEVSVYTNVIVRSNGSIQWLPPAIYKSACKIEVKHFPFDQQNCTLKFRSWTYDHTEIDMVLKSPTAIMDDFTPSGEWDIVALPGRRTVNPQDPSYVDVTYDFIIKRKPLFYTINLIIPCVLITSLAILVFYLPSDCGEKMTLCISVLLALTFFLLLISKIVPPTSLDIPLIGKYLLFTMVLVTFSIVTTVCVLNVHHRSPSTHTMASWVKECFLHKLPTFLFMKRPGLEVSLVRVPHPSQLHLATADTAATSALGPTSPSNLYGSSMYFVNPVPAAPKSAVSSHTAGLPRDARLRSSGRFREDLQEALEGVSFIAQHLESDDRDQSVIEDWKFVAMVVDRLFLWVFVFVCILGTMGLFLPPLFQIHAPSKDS

COCC[C@H]1CC2CN3CCc4c([nH]c5ccccc45)[C@](C(=O)OC)(C2)[C@H]13 [18-MC, 18-methoxycoronaridine]
inhibition of [3H]epibatidine binding: do not inhibit

CNC1(C)C2CCC(C2)C1(C)C (centres unmarked) [mecamylamine]
inhibition of [3H]epibatidine binding: do not inhibit
